Reference: patent publication EP0113998A2, “Composition and treatment for herpes simplex viral infections” (priority 1982, dated 1984)
Marks after values point to notes of the source that are not given here.

System: herpes simplex infections
Type: in vivo, Human
Conditions: for Side Effects: human, in vivo; for Number Days To > 90% Improvement: topical, 1% in aqueous 30% ethanol and 5% neopurcellin, genital and oral herpes patients, placebo 6.250
Description: A clinical study was performed in a. classical double blind format with numbered vials containing either 1% sodium deoxycholic acid (DOC)in an aqueous solution of 30% ethanol and 5% neopurcellin (a mixture of inert medium chain fatty acids). The placebo was exactly the same, except that it lacked the sodium deoxycholic acid.

Structure (SMILES): C[C@H](CCC(=O)O)[C@H]1CC[C@H]2[C@@H]3CC[C@@H]4C[C@H](O)CC[C@]4(C)[C@H]3C[C@H](O)[C@]12C [DOC, sodium deoxycholic acid]
- Side Effects: 1*
- Number Days To > 90% Improvement: 1.608 days

Structure (SMILES): CC[N+](C)(CC)CCO[C@H]1CC[C@@]2(C)C(=CC[C@H]3[C@@H]4CC[C@H]([C@@H](C)O)[C@@]4(C)CC[C@@H]32)C1 [TX047, 3-beta-[2-(Diethylamino)ethoxy]-20-beta-hydroxypregn-5-ene methyl p-toluenesulphonate]
- Efficacy by site of infection (genital / oral herpes) (description in words, patients of Example 2): approx. 60% genital, 40% oral herpes. Efficacy was greatest in the treatment of oral infec-tions and less but clearly active, and use-ful for genital herpes.
- Side Effects: 2*
- reduction of significant signs of herpes simplex infections including erythema, edema, vesiculation, ulceration and pain (summary of findings of Example 2): markedly reduce the significant signs of herpes simplex infections
- Number Days To > 90% Improvement: 1.774 days
